Source: patent US9938299B2, “Glycosidase inhibitors and uses thereof” (MERCK SHARP & DOHME CORP., priority 2012, dated 2018)
Where two headings read alike, the source gives them in different places.

What was measured:
human O-GlcNAcase = target: T1, human O-GlcNAcase (Homo sapiens, UniProt O60502); assay: Determination of KI values for inhibition of O-GlcNAcase activity (fluorogenic 4-methylumbelliferyl GlcNAc substrate); assay type: biochemical
T1 sequence (O60502 1-916): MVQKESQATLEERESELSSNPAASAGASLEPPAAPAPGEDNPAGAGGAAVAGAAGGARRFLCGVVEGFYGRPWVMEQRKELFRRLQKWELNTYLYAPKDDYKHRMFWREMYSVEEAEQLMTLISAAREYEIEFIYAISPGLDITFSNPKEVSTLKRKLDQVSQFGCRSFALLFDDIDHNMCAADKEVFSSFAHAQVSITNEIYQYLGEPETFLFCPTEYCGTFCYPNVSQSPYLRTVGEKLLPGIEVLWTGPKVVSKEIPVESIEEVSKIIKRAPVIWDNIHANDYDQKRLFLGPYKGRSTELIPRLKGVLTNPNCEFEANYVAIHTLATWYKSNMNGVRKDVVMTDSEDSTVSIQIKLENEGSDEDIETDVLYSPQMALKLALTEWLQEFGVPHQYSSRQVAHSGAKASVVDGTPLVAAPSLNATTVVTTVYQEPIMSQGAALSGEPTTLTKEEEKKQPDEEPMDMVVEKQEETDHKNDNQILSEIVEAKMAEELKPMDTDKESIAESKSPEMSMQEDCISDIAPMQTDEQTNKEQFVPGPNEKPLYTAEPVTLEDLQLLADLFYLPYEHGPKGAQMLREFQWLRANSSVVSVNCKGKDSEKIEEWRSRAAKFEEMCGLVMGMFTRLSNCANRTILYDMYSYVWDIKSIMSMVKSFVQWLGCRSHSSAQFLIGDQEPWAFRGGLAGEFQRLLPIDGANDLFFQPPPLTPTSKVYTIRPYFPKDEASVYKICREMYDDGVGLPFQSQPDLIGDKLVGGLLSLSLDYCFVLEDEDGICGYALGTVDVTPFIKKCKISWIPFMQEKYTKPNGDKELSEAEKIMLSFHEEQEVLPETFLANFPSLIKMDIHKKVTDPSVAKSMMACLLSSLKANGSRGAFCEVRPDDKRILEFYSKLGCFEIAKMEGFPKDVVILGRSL
Experimental: Assay for Determination of […] for Inhibition of O-GlcNAcase Activity
Experimental procedure for kinetic analyses: Enzymatic reactions were carried out in a reaction containing 50 mM NaH2PO4, 100 mM NaCl and 0.1% BSA (pH 7.0) using 2 mM 4-Methylumbelliferyl N-acetyl-β-D-glucosaminide dihydrate (Sigma M2133) dissolved in ddH2O, as a substrate. The amount of purified human O-GlcNAcase enzyme used in the reaction was 0.7 nM. Test compound of varying concentrations was added to the enzyme prior to initiation of the reaction. The reaction was performed at room temperature in a 96-well plate and was initiated with the addition of substrate. […] The slope of product production was determined for each concentration of compound tested and plotted, using standard curve fitting algorithms for sigmoidal dose response curves. The values for a four parameter logistic curve fit of the data were determined.

[1] = Determination of apparent permeability (Papp), bi-directional transport in LLC-PK1 cells; assay type: in vitro ADME; conditions: pig, t=3 h, average of A to B and B to A
Experimental: (§1) Bi-directional transport was evaluated in LLC-PK1 cells in order to determine apparent permeability (Papp). LLC-PK1 cells can form a tight monolayer and therefore can be used to assess vectorial transport of compounds from basolateral to apical (B→A) and from apical to basolateral (A→B).
(§2) To determine Papp LLC-PK1 cells were cultured in 96-well transwell culture plates (Millipore). Solutions containing the test compounds (1 μM) were prepared in Hank's Balanced Salt Solution with 10 mM HEPES. Substrate solution (150 μL) was added to either the apical (A) or the basolateral (B) compartment of the culture plate, and buffer (150 μL) was added to the compartment opposite to that containing the compound. At t=3 h, 50 μL samples were removed from both sides of monolayers dosed with test compound and placed in 96 well plates, scintillant (200 μL) or internal standard (100 μL labetolol 1 μM) was added to the samples and concentration was determined by liquid scintillation counting in a MicroBeta Wallac Trilux scintillation counter (Perkin Elmer Life Sciences, Boston, Mass.) or by LCMS/MS (Applied Biosystems SCIEX API 5000 triple quadruple mass spectrometer). [^3H]Verapamil (1 μM) was used as the positive control. The experiment was performed in triplicate.

hPgp = target: T2, hPgp (Homo sapiens, UniProt P08183); assay: hPgp efflux ratio (Papp B→A/A→B ratio); assay type: in vitro ADME; conditions: LLC-PK1
T2 construct: expressed in transfected cells; host or cells: LLC-PK1 cells
T2 sequence (P08183 whole entry): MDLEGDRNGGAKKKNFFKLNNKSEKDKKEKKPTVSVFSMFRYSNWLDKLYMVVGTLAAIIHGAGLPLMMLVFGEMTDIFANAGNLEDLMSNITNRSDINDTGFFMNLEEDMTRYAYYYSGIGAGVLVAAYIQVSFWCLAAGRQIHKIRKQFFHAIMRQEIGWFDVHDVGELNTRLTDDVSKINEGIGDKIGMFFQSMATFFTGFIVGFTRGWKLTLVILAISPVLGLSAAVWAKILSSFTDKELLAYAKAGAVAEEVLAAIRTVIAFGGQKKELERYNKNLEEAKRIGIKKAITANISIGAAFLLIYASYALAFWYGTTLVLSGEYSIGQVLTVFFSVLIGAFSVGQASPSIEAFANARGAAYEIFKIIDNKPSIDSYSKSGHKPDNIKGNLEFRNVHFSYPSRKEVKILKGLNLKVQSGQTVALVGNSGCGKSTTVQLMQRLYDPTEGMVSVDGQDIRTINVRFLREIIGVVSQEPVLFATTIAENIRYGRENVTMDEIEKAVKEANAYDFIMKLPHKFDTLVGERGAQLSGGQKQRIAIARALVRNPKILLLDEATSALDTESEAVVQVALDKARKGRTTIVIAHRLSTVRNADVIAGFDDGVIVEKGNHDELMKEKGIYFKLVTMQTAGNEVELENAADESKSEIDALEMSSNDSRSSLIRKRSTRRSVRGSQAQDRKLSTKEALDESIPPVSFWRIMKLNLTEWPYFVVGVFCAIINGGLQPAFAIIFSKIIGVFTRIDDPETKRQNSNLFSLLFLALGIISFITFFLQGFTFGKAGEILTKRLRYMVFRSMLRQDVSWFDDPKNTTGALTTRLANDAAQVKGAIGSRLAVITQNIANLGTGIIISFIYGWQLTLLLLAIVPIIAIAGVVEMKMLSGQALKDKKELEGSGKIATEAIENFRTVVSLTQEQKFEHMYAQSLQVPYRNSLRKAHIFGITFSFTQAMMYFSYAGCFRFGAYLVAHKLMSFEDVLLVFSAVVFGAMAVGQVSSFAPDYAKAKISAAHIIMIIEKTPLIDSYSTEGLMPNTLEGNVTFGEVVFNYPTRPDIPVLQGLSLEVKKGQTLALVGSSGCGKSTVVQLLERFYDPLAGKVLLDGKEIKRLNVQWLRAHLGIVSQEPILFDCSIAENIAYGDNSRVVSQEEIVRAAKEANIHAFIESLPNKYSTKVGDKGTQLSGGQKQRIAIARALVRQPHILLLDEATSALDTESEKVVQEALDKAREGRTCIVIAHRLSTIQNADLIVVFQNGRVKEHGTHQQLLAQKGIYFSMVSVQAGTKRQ
Experimental: as §1, §2

[2] = purified human O-GlcNAcase 0.7 nM, 2 mM substrate, pH 7.0, room temperature, Cheng-Prusoff, read-out: Ki

| SMILES | Ki (human O-GlcNAcase; [2]) [nM] | Papp at 3 h, 1 μM [1] [×10⁻⁶ cm/s] | efflux ratio at 3 h, 1 μM (hPgp) | Ki (human O-GlcNAcase) [nM] |
| --- | --- | --- | --- | --- |
| CNC1=N[C@@H]2[C@@H](O)[C@H](O)[C@@H](CCCc3ccc(OC)cc3)O[C@@H]2S1 [Example 34, (3aR,5R,6S,7R,7aR)-5-[3-(4-methoxyphenyl)propyl]-2-(methylamino)-5,6,7,7a-tetrahydro-3aH-pyrano[3,2-d][1,3]thiazole-6,7-diol] | 11.1 | 25 | 3.4 |  |
| CCNC1=N[C@@H]2[C@@H](O)[C@H](O)[C@@H](CCl)O[C@@H]2S1 [Example 54, (3aR,5S,6S,7R,7aR)-5-(chloromethyl)-2-(ethylamino)-5,6,7,7a-tetrahydro-3aH-pyrano[3,2-d]thiazole-6,7-diol] |  |  |  | 2.3 |
| CCNCC[C@H]1O[C@@H]2SC(NC)=N[C@@H]2[C@@H](O)[C@@H]1O [Example 55, (3aR,5R,6S,7R,7aR)-5-(2-(ethylamino)ethyl)-2-(methylamino)-5,6,7,7a-tetrahydro-3aH-pyrano[3,2-d]thiazole-6,7-diol] | 9.3 |  |  |  |
| CN(C)C1=N[C@@H]2[C@@H](O)[C@H](O)[C@@H](C(C)(C)Cl)O[C@@H]2S1 [Example 56, (3aR,5S,6S,7R,7aR)-5-(2-chloropropan-2-yl)-2-(dimethylamino)-5,6,7,7a-tetrahydro-3aH-pyrano[3,2-d]thiazole-6,7-diol] | 207 |  |  |  |
| C#C[C@H]1O[C@@H]2SC(NCC)=N[C@@H]2[C@@H](O)[C@@H]1O [Example 57, (3aR,5R,6S,7R,7aR)-2-(ethylamino)-5-ethynyl-5,6,7,7-tetrahydro-3aH-pyrano[3,2-d]thiazole-6,7-diol] | 837 |  |  |  |
| CCNC1=N[C@@H]2[C@@H](O)[C@H](O)[C@@H](C#N)O[C@@H]2S1 [Example 58, (3aR,5R,6S,7R,7aR)-2-(ethylamino)-6,7-dihydroxy-5,6,7,7a-tetrahydro-3aH-pyrano[3,2-d]thiazole-5-carbonitrile] | 601 |  |  |  |
| CNC1=N[C@@H]2[C@@H](O)[C@H](O)[C@@H](CSc3ccccc3)O[C@@H]2S1 [Example 59, (3aR,5 S,6S,7R,7aR)-2-(methylamino)-5-((phenylthio)methyl)-5,6,7,7a-tetrahydro-3aH-pyrano[3,2-d]thiazole-6,7-diol] | 1.9 |  |  |  |
| CNC1=N[C@@H]2[C@@H](O)[C@H](O)[C@@H](CS(=O)(=O)c3ccccc3)O[C@@H]2S1 [Example 60, (3aR,5 S,6S,7R,7aR)-2-(methylamino)-5-((phenylsulfonyl)methyl)-5,6,7,7a-tetrahydro-3 aH-pyrano[3,2-d]thiazole-6,7-diol] | 75 |  |  |  |
| CNC1=N[C@@H]2[C@@H](O)[C@H](O)[C@@H](CSCc3ccccc3)O[C@@H]2S1 [Example 61, (3aR,5S,6S,7R,7aR)-5-((benzylthio)methyl)-2-(methylamino)-5,6,7,7a-tetrahydro-3aH-pyrano[3,2-d]thiazole-6,7-diol] | 4.1 |  |  |  |
| CNC1=N[C@@H]2[C@@H](O)[C@H](O)[C@@H](CS(=O)(=O)Cc3ccccc3)O[C@@H]2S1 [Example 62, (3aR,5S,6S,7R,7aR)-5-((benzylsulfonyl)methyl)-2-(methylamino)-5,6,7,7a-tetrahydro-3aH-pyrano[3,2-d]thiazole-6,7-diol] | 352 | 1.3 | 1.1 |  |
